Source: patent US20180092393A1, “IRON NICOTINATE COMPOSITION” (NESTEC S.A., priority 2015, published 2018)

Conditions: colour difference vs product with no iron salts; approximately 2.1 mg iron per 100 g; flash pasteurized at 3.05° C. for 2 minutes; 47.3% banana puree
Method: Colour measurements were performed in 1×1 cm polystyrene cuvettes using an X-Rite ColorEye 7000A colorimeter. The colorimeter was set up with a D65 light source, 3.0 degree observer angle and with specular component included. The colour difference between the product with no iron salts and the iron fortified product was measured for each iron salt and expressed as ΔEab* using the CIELAB colour scale.

With O=S(=O)([O-])[O-].[Fe+2] [Ferrous sulphate] the “ΔEab*” value was 3.26.
